Source: patent US9365563B2, “TRPV1 antagonists including dihydroxy substituent and uses thereof” (Purdue Pharma L.P., priority 2007, dated 2016)
Read-outs that look alike come from different tables or passages of the source.

Columns and labels:
[1] = tested on: FCA-induced inflammation of the rat hind paw; assay: FCA model of inflammatory pain (thermal hyperalgesia, plantar test); assay type: in vivo; settings: for ED50: read-out: ED50 for reversal of FCA-induced thermal hyperalgesia
Procedure: (§1) Each experiment uses rats weighing between 200-260 g at the start of the experiment. The rats are group-housed and have free access to food and water at all times, except prior to oral administration of a compound of formula I when food is removed for 16 hours before dosing. A control group acts as a comparison to rats treated with a compound of formula I. The control group is administered the carrier for the compound of formula I. The volume of carrier administered to the control group is the same as the volume of carrier and compound of formula I administered to the test group.
To assess the actions of the compounds of formula I on the treatment or prevention of inflammatory pain the Freund's complete adjuvant (“FCA”) model of inflammatory pain is used. FCA-induced inflammation of the rat hind paw is associated with the development of persistent inflammatory mechanical and thermal hyperalgesia and provides reliable prediction of the anti-hyperalgesic action of clinically useful analgesic drugs (L. Bartho et al., “Involvement of Capsaicin-sensitive Neurones in Hyperalgesia and Enhanced Opioid Antinociception in Inflammation,” Naunyn-Schmiedeberg's Archives of Pharmacol. 342:666-670 (1990)). The left hind paw of each animal is administered a 50 μL intraplantar injection of 50% FCA. 24 hour post injection, the animal is assessed for response to noxious mechanical stimuli by determining the PWT, or to noxious thermal stimuli by determining the PWL, as described below. […] Responses to noxious mechanical or thermal stimuli are then determined 1, 3, 5 and 24 hours post administration. […]
The plantar test can be used to assess thermal hyperalgesia. For this test, hind paw withdrawal latencies (PWL) to a noxious thermal stimulus are determined using a plantar test apparatus (commercially available from Ugo Basile of Italy) following the technique described by K. Hargreaves et al., “A New and Sensitive Method for Measuring Thermal Nociception in Cutaneous Hyperalgesia,” Pain 32(1):77-88 (1988). […] Three latencies are determined at each time point and averaged. […]

human TRPV1 [2] = molecular target: T1, human TRPV1 (Homo sapiens (Human), UniProt Q8NER1); assay: pH-based assay, Protocol 2 (hpH-CHO); assay type: cell-based; settings: TRPV1/CHO cells, pH 5.0-5.1; mean ± SEM; read-out: TRPV1 IC50 Potency Human pH CHO (hpH-CHO)
Excerpt: For Protocol 2, a Chinese Hamster Ovary cell line (CHO) that has been engineered to constitutively express human recombinant TRPV1 was used (TRPV1/CHO cells). The TRPV1/CHO cell line was generated as described below.
The resulting PCR products were purified from agarose gels using Gel Band Purification Kit (GE Healthcare Bioscience) and were subcloned into pCR-Blunt vector (Invitrogen). The cloned cDNA was fully sequenced using a fluorescent dye-terminator reagent (BigDye Terminator ver3.1 Cycle Sequencing Kit, Applied Biosystems) and ABI Prism 3100 genetic analyzer (Applied Biosystems). The pCR-Blunt vector containing the hTRPV1 cDNA was subjected to restriction digestion with EcoR1. […] The sequence of the cDNA encoding TRPV1 is available at GenBank accession number AJ277028.
CHO-K1 cells were maintained in growth medium consisting of α-MEM, 10% FBS (Hyclone), and 100 IU/mL of penicillin-100 μg/mL of streptomycin mixed solution (Nacalai Tesque, Japan) at 37° C. in an environment of humidified 95% air and 5% CO2. […] 24 hr after transfection, neomycin-resistant cells were selected using 1 mg/mL G418 (Nacalai Tesque). […]
(5) The Fura-2 fluorescent intensity was monitored at a wavelength of 340 nm and at 380 nm, respectively, at a rate of 0.5 Hz for a total of 240 seconds.

Aqueous solubility = assay type: physicochemical
[3] = Bioavailability following oral administration; assay type: in vivo
TRPV1 receptor = TRPV1 receptor (Rattus norvegicus (Rat), UniProt O35433); assay: Capsaicin-induced eye wipe test; assay type: in vivo; settings: for number of capsaicin-induced eye wipes: pre-administration value 24
Procedure: as §1
To assess the effect of compounds of formula I on TRPV1 receptor-mediated pain, the capsaicin-induced eye wipe test is used (N. R. Gavva et al., “AMG 9810 [(E)-3-(4-t-Butylphenyl)-N-(2,3-dihydrobenzo[b][1,4]dioxin-6-yl)acrylamide], a Novel Vanilloid Receptor 1 (TRPV1) Antagonist with Antihyperalgesic Properties”, J. Pharmacol. Exp. Ther. 313:474-484 (2005)). The eye wipe test is a reliable high-throughput test of the effect of TRPV1 antagonists. Rats are given a single injection of 1, 3, 10 or 30 mg/kg of either a compound of formula I; 30 mg/kg of a control selected from Celebrex, indomethacin or naproxen; or carrier. At 1, 3 or 5 hours after drug administration, […] of a 100 μM capsaicin solution (in 10% EtOH/PBS) is instilled in one eye of each animal with a pipette. The number of forelimb movements (touching or wiping of the capsaicin-treated eye) are counted during a 2 minute period following instillation of capsaicin into the eye.

[4] = Plasma concentration after administration to an animal; assay type: in vivo
human TRPV1 [5] = molecular target: T1, human TRPV1; assay: Capsaicin-based assay, Protocol 2 (hCAP-CHO); assay type: cell-based; settings: TRPV1/CHO cells, 100 nM capsaicin; mean ± SEM; read-out: TRPV1 IC50 Potency Human Capsaicin CHO (hCAP-CHO)
Excerpt: The TRPV1/CHO cell line was generated as described below. […] The resulting PCR products were purified from agarose gels using Gel Band Purification Kit (GE Healthcare Bioscience) and were subcloned into pCR-Blunt vector (Invitrogen). The cloned cDNA was fully sequenced using a fluorescent dye-terminator reagent (BigDye Terminator ver3.1 Cycle Sequencing Kit, Applied Biosystems) and ABI Prism 3100 genetic analyzer (Applied Biosystems). The pCR-Blunt vector containing the hTRPV1 cDNA was subjected to restriction digestion with EcoR1. The restriction fragment was subcloned into expression vector pcDNA3.1(-) (Invitrogen) and named pcDNA3.1(-)-hVR1 plasmid. The sequence of the cDNA encoding TRPV1 is available at GenBank accession number AJ277028. […] The cells were transfected with the pcDNA3.1(-)-hVR1 plasmid using FuGENE6 (Roche) according to the manufacturer's protocol. 24 hr after transfection, neomycin-resistant cells were selected using 1 mg/mL G418 (Nacalai Tesque). […] The cells expressing hTRPV1 were cultured in the growth medium supplemented with 1 mg/mL G418. […] Subsequently, the cells were loaded by incubation in 0.1 mL of wash buffer containing Fluo-4 at 3 μM final concentration. After 1 hour, the cells were washed twice with 0.2 mL wash buffer and resuspended in 0.1 mL wash buffer. The plates were then transferred to a Fluorescence Imaging Plate Reader (Molecular Devices). Fluorescence intensity was monitored for 15 seconds to establish a baseline. […] The final concentration of the compound was adjusted to range from 100 μM to 1.5625 μM. […] Data were collected over the entire time course and analyzed using Excel and the curve-fitting formula GraphPad Prism.

Sequence of TRPV1 receptor (O35433 whole entry): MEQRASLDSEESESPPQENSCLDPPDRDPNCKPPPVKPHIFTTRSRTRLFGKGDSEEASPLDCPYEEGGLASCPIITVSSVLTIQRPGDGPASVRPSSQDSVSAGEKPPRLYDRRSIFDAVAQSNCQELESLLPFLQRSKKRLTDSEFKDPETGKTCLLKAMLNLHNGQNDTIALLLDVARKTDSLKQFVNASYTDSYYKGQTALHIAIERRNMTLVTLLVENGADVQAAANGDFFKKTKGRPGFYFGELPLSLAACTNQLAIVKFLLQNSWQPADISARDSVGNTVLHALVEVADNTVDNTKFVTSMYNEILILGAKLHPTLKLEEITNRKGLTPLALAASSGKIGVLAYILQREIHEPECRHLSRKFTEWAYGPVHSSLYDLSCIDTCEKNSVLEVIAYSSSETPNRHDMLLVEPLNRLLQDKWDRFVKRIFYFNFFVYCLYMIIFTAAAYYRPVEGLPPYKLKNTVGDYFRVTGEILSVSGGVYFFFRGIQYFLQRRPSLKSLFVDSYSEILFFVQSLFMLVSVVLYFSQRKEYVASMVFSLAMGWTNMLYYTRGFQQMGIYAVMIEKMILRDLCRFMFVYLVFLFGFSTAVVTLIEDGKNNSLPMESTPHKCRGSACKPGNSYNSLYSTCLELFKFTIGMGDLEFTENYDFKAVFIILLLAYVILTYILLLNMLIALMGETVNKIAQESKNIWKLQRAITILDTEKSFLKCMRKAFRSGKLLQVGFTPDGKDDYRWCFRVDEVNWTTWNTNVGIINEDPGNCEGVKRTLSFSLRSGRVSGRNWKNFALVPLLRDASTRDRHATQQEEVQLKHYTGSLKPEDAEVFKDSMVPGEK
T1 sequence (Q8NER1 whole entry): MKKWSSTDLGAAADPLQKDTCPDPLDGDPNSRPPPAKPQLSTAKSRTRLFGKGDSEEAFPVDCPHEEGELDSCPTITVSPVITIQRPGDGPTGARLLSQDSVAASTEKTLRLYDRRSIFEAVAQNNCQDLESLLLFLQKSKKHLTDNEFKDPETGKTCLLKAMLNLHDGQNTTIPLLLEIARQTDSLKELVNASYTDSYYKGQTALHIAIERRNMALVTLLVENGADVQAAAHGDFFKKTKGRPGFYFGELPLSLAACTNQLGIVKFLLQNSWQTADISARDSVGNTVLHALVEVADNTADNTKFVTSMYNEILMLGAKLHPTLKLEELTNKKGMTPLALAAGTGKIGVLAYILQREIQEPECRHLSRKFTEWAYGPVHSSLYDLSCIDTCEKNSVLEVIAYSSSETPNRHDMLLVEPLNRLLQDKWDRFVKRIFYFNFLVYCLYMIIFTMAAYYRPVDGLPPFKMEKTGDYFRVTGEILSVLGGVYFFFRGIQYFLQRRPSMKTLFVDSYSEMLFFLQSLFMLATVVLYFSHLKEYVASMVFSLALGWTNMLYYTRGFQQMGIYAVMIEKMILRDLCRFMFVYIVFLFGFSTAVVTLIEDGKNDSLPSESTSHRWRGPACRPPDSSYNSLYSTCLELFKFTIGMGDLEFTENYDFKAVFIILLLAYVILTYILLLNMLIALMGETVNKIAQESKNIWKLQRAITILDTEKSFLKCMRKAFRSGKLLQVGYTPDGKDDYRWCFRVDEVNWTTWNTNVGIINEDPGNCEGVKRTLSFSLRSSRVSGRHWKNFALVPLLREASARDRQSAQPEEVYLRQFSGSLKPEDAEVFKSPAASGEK

For O=C(Nc1ccc(C(F)(F)F)c(Cl)c1)N1CC=C(c2ncc([C@H](O)CO)cc2Cl)CC1 [Compound D2, (S)-3-Chloro-5-(1,2-dihydroxy-ethyl)-3′,6′-dihydro-2′H-[2,4]bipyridinyl-1′-carboxylic acid (3-chloro-4-trifluoromethyl-phenyl)amide], the ED50 ([1]; 3 hours after administration) was 0.95 mg/kg, the “maximum % reversal of FCA-induced thermal hyperalgesia” value ([1]; 5 hours after administration) was 78.7% and the ED50 ([1]; 5 hours after administration) was 1.63 mg/kg.
In the case of N#CCc1cnc(C2=CCN(C(=O)Nc3ccc(C(F)(F)F)cc3)CC2)c(Cl)c1 [Compound E6, 4-(3-chloro-5-(cyanomethyl)pyridin-2-yl)-N-(4-(trifluoromethyl)phenyl)-5,6-dihydropyridine-1(2H)-carboxamide], the IC50 (human TRPV1 [2]) is reported as 0.164 µM, the “aqueous solubility at pH 1.2” value (Aqueous solubility) is reported as 27.2 μM and the “aqueous solubility at pH 6.8” value (Aqueous solubility) is reported as 9.0 μM.
Work on O=C(Nc1ccc(C(F)(F)F)cn1)N1CCC(F)(c2ncc([C@H](O)CO)cc2Cl)CC1 [Compound G1] yielded a bioavailability ([3]; in vivo, read-out: bioavailable following oral administration) of 70.7%.
With O=C(Nc1ccc(C(F)(F)F)cc1)N1CCC(F)(c2ncc([C@H](O)CO)cc2Cl)CC1 [Compound N1, (S)-4-(3-chloro-5-(1,2-dihydroxyethyl)pyridin-2-yl)-4-fluoro-N-(4-(trifluoromethyl)phenyl)piperidine-1-carboxamide] the “aqueous solubility at pH 1.2” value (Aqueous solubility) was over 50 μM, the “aqueous solubility at pH 6.8” value (Aqueous solubility) was 28.0 μM and the “decrease of eye wipes relative to pre-administration value” (TRPV1 receptor; 1 hour after administration) was 87.5%. For the same compound, the “number of capsaicin-induced eye wipes” value (TRPV1 receptor; 1 hour after administration) was 3, the “decrease of eye wipes relative to pre-administration value” (TRPV1 receptor; 3 hours after administration) was 96% and the “number of capsaicin-induced eye wipes” value (TRPV1 receptor; 3 hours after administration) was 1. For the same compound, the “decrease of eye wipes relative to pre-administration value” (TRPV1 receptor; 5 hours after administration) was 92% and the “number of capsaicin-induced eye wipes” value (TRPV1 receptor; 5 hours after administration) was 2.
For CC(O)(CO)c1cnc(C2=CCN(C(=O)Nc3ccc(C(F)(F)F)cc3)CC2)c(Cl)c1 (stereo not drawn) [Compound R6], the “time to maximum plasma concentration after administration” value ([4]; animal plasma) was 1.85 h, the “maximum plasma concentration relative to the maximum for compound 200” value ([4]; animal plasma, for a given dose) was 5.3 times and the “plasma concentration up to 24 h compared with compound 200” value ([4]; up to 24 h) was “consistently greater”. The “bioavailable following oral administration” value [3] was 68.9%.
In the case of O=C(Nc1ccc(OC(F)(F)F)c(Cl)c1)N1CC=C(c2ncc([C@H](O)CO)cc2Cl)CC1 [Compound Y1, (S)-3-Chloro-5-(1,2-dihydroxy-ethyl)-3′,6′-dihydro-2′H-[2,4]bipyridinyl-1′-carboxylic acid (3-chloro-4-trifluoromethoxy-phenyl)amide], the IC50 (human TRPV1 [5]) is reported as 0.0747 ± 0.0184 µM and the IC50 (human TRPV1 [2]) is reported as 0.0135 ± 0.0012 µM.
